Results taken from article PMC10326086 (Cancer Chemotherapy and Pharmacology, 2023).
Like-named read-outs stand apart in the source and are kept apart here.

How the values were obtained:
[1] = test system: ECG intervals in patients with advanced solid tumors; details: human, in vivo
Protocol: (§1) On day − 2, patients underwent dECG to determine eligibility by central review. On day − 1, baseline dECG assessments were performed at clock times matched to the planned/scheduled dECG assessment times on days 1 and 3. […] Doses were administered under fasting conditions (2 h pre-dose to 2 h post-dose), with prescribed anti-emetic(s) given orally 30 min prior to each dose [20].
(§2) Patients had their final dECG/PK assessments on day 4, 24 h post-dose. Baseline for dECG assessments was defined as the time-matched observation on day − 1. Triplicate dECG recordings were taken within an approximate 5-min period prior to PK sample collection and as close to the scheduled times as possible. Patients rested for ≥ 10 min prior to dECG recording and were in the same supine body position for all recordings. HR and RR, QT, PR, and QRS interval parameters were recorded. Standardized equipment was provided by the central ECG laboratory. Recorded dECGs were sent to the central ECG laboratory for review and interpretation, using their standard operating procedures and with manual adjudication (3 beat on lead II).

[2] = test system: patients with advanced solid tumors; experiment: Safety and tolerability (adverse events, CTCAE version 4.03); details: n = 21
From the text: (§3) Safety was appraised throughout the study by the assessment of adverse events (AEs; graded by Common Terminology Criteria for Adverse Events [CTCAE], version 4.03), physical examination, and evaluation of vital signs, ECG, and laboratory data (clinical chemistry and hematology). Dose reductions were not allowed.

[3] = test system: ECG intervals in patients with advanced solid tumors; experiment: Digital 12-lead ECG (dECG) assessments, time-matched change from baseline; details: over the treatment period (days 1–3, 24 h post-dose)
Protocol: as §1, §2

patients = test system: patients; set-up: method as in AstraZeneca, data on file, 2022; details: preliminary data; ref AstraZeneca, data on file, 2022; cited from earlier work
[4] = Plasma pharmacokinetics of adavosertib
[5] = test system: QTcF interval in patients with advanced solid tumors; details: human, in vivo
From the text: Estimates were made of the mean change in QTcF at the geometric mean Cmax on days 1 and 3 from the fitted model, with corresponding 90% two-sided confidence intervals (CIs).

[6] = test system: patients with advanced solid tumors; details: human, in vivo
From the text: as §3

[7] = test system: patients with advanced solid tumors; details: cited from earlier work
[8] = set-up: method as in doi:10.1158/1538-7445.am2019-ct012; details: after 200 mg bid dosing; cited from earlier work
QTc interval = details: in vivo; cited from earlier work
[9] = human, in vivo, 225 mg, 2.5 days

C=CCn1c(=O)c2cnc(Nc3ccc(N4CCN(C)CC4)cc3)nc2n1-c1cccc(C(C)(C)O)n1 [adavosertib]
Mean change in HR, range over time points ([1]; 1 day): − 1.7 to 2.9 | Mean change in PR interval, range over time points ([1]; 1 day): − 4.4 to 3.5 | Mean change in QRS interval, range over time points ([1]; 1 day): − 1.2 to 1.4 | Mean change in RR interval, range over time points ([1]; 1 day): − 38.0 to 22.3 | Patients with QTcF increase > 60 ms at any time during treatment ([1]; 1 day): 0 n (%) | Patients with QTcF value > 450 ms and increase > 30 ms ([1]; 1 day): 0 n (%) | Patients with QTcF value > 450 ms at any time during treatment ([1]; 1 day): 0 n (%) | Patients with QTcF value > 480 ms at any time during treatment ([1]; 1 day): 0 n (%) | Patients with QTcF value > 500 ms and increase > 60 ms ([1]; 1 day): 0 n (%) | Patients with QTcF value > 500 ms at any time during treatment ([1]; 1 day): 0 n (%) | Mean change in HR, range over time points ([1]; 3 day): 1.4 to 9.5 bpm | Mean change in PR interval, range over time points ([1]; 3 day): − 4.4 to 0.3 | Mean change in QRS interval, range over time points ([1]; 3 day): − 1.8 to − 2.0 | Mean change in RR interval, range over time points ([1]; 3 day): − 102.5 to − 30.4 | Patients with QTcF increase > 30 ms at any time during treatment ([1]; 3 day): 1 (4.8) n (%) | Patients with QTcF increase > 60 ms at any time during treatment ([1]; 3 day): 0 n (%) | Patients with QTcF value > 450 ms and increase > 30 ms ([1]; 3 day): 0 n (%) | Patients with QTcF value > 450 ms at any time during treatment ([1]; 3 day): 0 n (%) | Patients with QTcF value > 480 ms at any time during treatment ([1]; 3 day): 0 n (%) | Patients with QTcF value > 500 ms and increase > 60 ms ([1]; 3 day): 0 n (%) | Patients with QTcF value > 500 ms at any time during treatment ([1]; 3 day): 0 n (%) | AEs with an outcome of death [2]: No AEs with an outcome of death | Patients with QTcF > 450 ms [3]: No patient | Patients with increase in QTcF of > 60 ms [3]: No patient | Adverse drug reactions to adavosertib monotherapy (patients): include QTc prolongation | CLss/F, arithmetic mean (SD) ([4]; day 3): 43.2 L/h | CLss/F, median ([4]; day 3): 41.5 L/h | AUC0–12, median ([4]; human, in vivo): 5.383 µM·h | Cavg, arithmetic mean (SD) ([4]; human, in vivo): 944.8 nM | Cavg, geometric mean ([4]; human, in vivo): 901.2 nM | Cavg, median ([4]; human, in vivo): 898.9 nM | Cmin, arithmetic mean (SD) ([4]; human, in vivo): 517.7 nM | Cmin, geometric mean ([4]; human, in vivo): 410.4 nM | Cmin, median ([4]; human, in vivo): 499.0 nM | Tmax ([4]; human, in vivo): 3 h | tmax, median ([4]; human, in vivo): 2.5 h | Accumulation for AUC0–12 over 2.5 days of bid dosing [4, 9]: approximately 2.3 fold | Accumulation for Cmax over 2.5 days of bid dosing [4, 9]: ~2.1 fold | AUC(0-t) ([4]; human, in vivo, AUC0–12, arithmetic mean (SD)): 11.3 µM·h | AUC(0-t) ([4]; human, in vivo, AUC0–12, median): 10.6 µM·h | Cmax ([4]; human, in vivo, arithmetic mean (SD)): 1500 nM | Cmax ([4]; human, in vivo, median): 1520 nM | AUC(0-t) ([4]; human, in vivo, po, 225 mg, AUC0–12, geometric mean): 4.94 µM·h | Day effect estimate, concentration–ΔQTcF model [5]: −1.6 | Intercept estimate, concentration–ΔQTcF model [5]: −2.4 | Upper limits of predicted 90% CIs for ΔQTcF, sensitivity analysis [5]: < 1.5 ms | Causally related AEs of any grade: Anemia [6]: 1 (4.8) Number of patients (%) | Causally related AEs of any grade: Constipation [6]: 1 (4.8) Number of patients (%) | Causally related AEs of any grade: Decreased appetite [6]: 1 (4.8) Number of patients (%) | Causally related AEs of any grade: Diarrhea [6]: 6 (28.6) Number of patients (%) | Causally related AEs of any grade: Vomiting [6]: 2 (9.5) Number of patients (%) | Causally related grade ≥3 AEs: Anemia [6]: 1 (4.8) Number of patients (%) | Causally related grade ≥3 AEs: Constipation [6]: 0 Number of patients (%) | Causally related grade ≥3 AEs: Decreased appetite [6]: 0 Number of patients (%) | Causally related grade ≥3 AEs: Diarrhea [6]: 1 (4.8) Number of patients (%) | Causally related grade ≥3 AEs: Nausea [6]: 1 (4.8) Number of patients (%) | Causally related grade ≥3 AEs: Vomiting [6]: 1 (4.8) Number of patients (%) | Causally related AEs of any grade: Any AE ([6]; 2.5 days): 11 (52.4) Number of patients (%) | Causally related AEs of any grade: Nausea ([6]; 2.5 days): 6 (28.6) Number of patients (%) | Causally related grade ≥3 AEs: Any AE ([6]; 2.5 days): 2 (9.5) Number of patients (%) | Patients who discontinued treatment because of AEs ([6]; 2.5 days): 9.5% | Patients with AEs ([6]; 2.5 days): 76.2% | Patients with CTCAE grade 3 anemia ([6]; 2.5 days): 4.8% | Patients with CTCAE grade 3 diarrhea ([6]; 2.5 days): 4.8% | Patients with CTCAE grade 3 hypotension ([6]; 2.5 days): 4.8% | Patients with CTCAE grade 3 nausea ([6]; 2.5 days): 4.8% | Patients with a serious AE (vomiting, not considered drug related) ([6]; 2.5 days): 4.8% | Patients with diarrhea (any causality) ([6]; 2.5 days): 33.3% | Patients with nausea (any causality) ([6]; 2.5 days): 33.3% | Patients with treatment-related AEs ([6]; 2.5 days): 52.4% | Patients with treatment-related anemia ([6]; 2.5 days): 4.8% | Patients with treatment-related constipation ([6]; 2.5 days): 4.8% | Patients with treatment-related decreased appetite ([6]; 2.5 days): 4.8% | Patients with treatment-related diarrhea ([6]; 2.5 days): 28.6% | Patients with treatment-related nausea ([6]; 2.5 days): 28.6% | Patients with treatment-related vomiting ([6]; 2.5 days): 9.5% | Patients with vomiting (any causality) ([6]; 2.5 days): 23.8% | Total number of treatment-related AEs ([6]; 2.5 days): 17 | Dose proportionality of exposure ([7]; qd dosing, between 200 and 300 mg, single and multiple doses, preliminary): exposure increased more than dose proportionally | Maximum tolerated dose ([7]; twice daily (bid) over 2.5 days per week per 21-day cycle): 225 mg | AUC0–12 [8]: 8.1 µM·h

CN[C@H]1CC[C@@H](c2ccc(Cl)c(Cl)c2)c2ccccc21 [sertraline]
Risk of TdP (QTc interval): conditional risk of TdP
